The text below walks through data of US20240361338A1, “DIAGNOSIS AND TREATMENT OF ECTOPIC ENDOMETRIOSIS” (FERRING B.V., priority 2021, published 2024).

Series [1] deals with D2 mRNA expression in ectopic EMSCs. Kind of series: Real Time PCR of D2 mRNA expression after quinagolide treatment. It is filed as cell-based, human. As to conditions: ectopic lines, 48 h of 100 nM quinagolide, vs untreated. The text has this:
FIG. 2: Effect of quinagolide on D2 expression in eutopic and ectopic EMSCs. A: Western blot analysis showing the presence of D2 in […] different passages, and in sorted SUSD2^+ E-MSCs. B: Real Time PCR analysis showing the relative quantification (RQ) of D2 mRNA expression by eutopic and ectopic EMSCs. Data are represented as mean±SD of three different eutopic or ectopic (ovarian and peritoneal) lines and normalized to GAPDH and to eutopic […]: Real Time PCR analysis showing D2 mRNA expression after 48 h of 100 nM quinagolide treatment (Q100) by eutopic and ectopic EMSCs. Data are represented as mean±SD of three different eutopic or ectopic (ovarian and peritoneal) lines and normalized to GAPDH and to untreated […] was performed: *=P<0.05 vs CTL. Trizol Reagent (Ambion) was used to isolate total RNA of different cell preparations, according to the manufacturer's protocol. RNA was then quantified spectrophotometrically using Nanodrop ND-1000. Quantitative real-time PCR was performed for gene expression analysis. Briefly, using the HighCapacity cDNA Reverse Transcription Kit (Applied Biosystems), first-strand cDNA was produced from 200 ng of total RNA. […] Fold change expression respect to control was calculated for all samples.

Another series has as its system HUVECs. Briefly: BrdU cell proliferation assay on HUVECs. Type of series: cell-based, human. As to conditions: after 24 hours of quinagolide treatment, 10^-5 and 10^-7 M. On the procedure: FIG. 3: Quinagolide effect on EMSCs apoptosis and proliferation. A: Quinagolide concentration-response curve on ectopic EMSCs in both apoptosis (N=1) and proliferation (N=2) assays. B: Effect of two selected quinagolide doses (10^−5 and 10^−7M) on HUVECs (N=1) and ectopic E-MSCs (N=3) apoptosis and proliferation assays (N=2). Data are represented as mean±SD of the indicated number of experiments and normalized to untreated cells (Control). Cells were plated in growth medium at a concentration of 2,500 HUVECs/well and 3,000 E-MSCs/well in a 96-multiwell plate. The day after quinagolide was added to the growth medium at different concentrations after 24 hours. Deoxyribonucleic acid synthesis was detected as incorporation of 5-bromo-2-deoxyuridine (BrdU) into the cellular DNA after 48 hours from cell plaiting, using an enzyme-linked assay kit (Chemicon). Untreated cells were used as control. Data are expressed as the mean±standard deviation (SD) of the media of absorbance of at least three different experiments and normalized to control.

Series [2] concerns AKT. Kind of series: Western blot of AKT and P-AKT in ectopic EMSCs. Type of series: cell-based, human. The conditions noted are these: 100 nM quinagolide. The protocol: (§1) FIG. 6: Quinagolide effect on AKT activation. A: Representative western blot analysis and quantification of AKT levels in eutopic and ectopic EMSCs treated for 48 h with 100 nM quinagolide (Q), compared to untreated cells (CTL). B: Representative western blot analysis and quantification of P-AKT levels, normalized to AKT expression, in eutopic and ectopic EMSCs treated for 48 h with 100 nM quinagolide (Q), respect to untreated cells (CTL). C: Representative western blot analysis and quantification of P-AKT levels in HUVECs, ectopic […] basal), and in […] co-culture with HUVECs, treated or not for 24 h with 100 nM quinagolide (Q100 nM). Data are represented as mean±SD of at least two independent experiments, performed on different EMSC lines, and normalized to Vinculin and to untreated cells (CTL). One-way ANOVA was performed: *=p<0.05 and **=p<0.001 vs CTL. Cell pellets were lysed at 4° C. for 15 minutes in RIPA buffer supplemented with protease and phosphatase inhibitors cocktail and PMSF (Sigma-Aldrich). Proteins were quantified using Bradford solution following the manufacturer procedures (Bio-Rad Inc., Berkely, CA, USA) and aliquots of cell lysates containing 50 μg of proteins were run on 4-12% Mini-Protean TGX Stain-Free Gels (Bio-Rad) under reducing conditions and transferred onto PVDF membrane filters using the iBLOT2 system (Life Technologies). […]
A general note: In western blotting, separated proteins are transferred to a membrane and probed.

Series [3] deals with AKT. Kind of series: Western blot of P-AKT in eutopic EMSCs. It is filed as cell-based, human. As to conditions: eutopic cell lines, 100 nM quinagolide, 24 hours (text; legend 48 h). The protocol: as §1
The conditions of series [4]: long-term prolactinoma treatment (Schultz et al., 2000; Barlier et al., 2006); cited from earlier work.

For the molecule `CCCN1C[C@@H](NS(=O)(=O)N(CC)CC)C[C@@H]2Cc3c(O)cccc3C[C@H]21` [quinagolide, N,N-diethyl-N′-[(3S,4aS,10aR)-6-hydroxy-1-propyl-1,2,3,4,4a,5,10,10a-octahydrobenzo[g]quinolin-3-yl]sulfamide], the “D2 mRNA expression” value in series [1] is “reduced”. For the same molecule, the “proliferation of HUVEC cells” value in the series with HUVECs is “did not show alteration”. The “total AKT levels” value in the series on AKT [2] (ectopic EMSCs, 48 h (FIG. 6A)) was “reduced”. Also, the AKT phosphorylation entry in the series with AKT [2] (ectopic cell lines, 24 hours (text; legend 48 h)) is “significant decrease”; in the series with AKT [3], “significant decrease”. Further, the safety and tolerability result in series [4] is “safe and well-tolerated”.
